{
  "source": "patent US4804502A",
  "about": "“Vitamin D compounds” (priority 1988, dated 1989)",
  "key": {"[1]": {"system": "intestinal calcium absorption (duodenum)", "assay": "Stimulation of Intestinal Calcium Absorption in Rat (intestinal 45Ca transport, everted gut sac)", "conditions": "12.5 ng/rat, intrajugular, 18 h"}, "[2]": {"system": "vitamin D deficient rats", "conditions": "3 weeks"}, "[3]": {"system": "bone calcium mobilization", "assay": "Bone Calcium Mobilization in Rat (plasma Ca increase)", "type": "in vivo", "conditions": "12.5 ng/rat, intrajugular, 18 h", "protocol": "Controls received carrier alone. Bone Ca resorption (BCR) was estimated by measuring the blood Ca increase in the treated rats. Blood was collected in heparinized tubes and centrifuged. The resulting plasma was measured for calcium concentration by atomic absorption spectroscopy. Since rats were fed a diet essentially devoid of Ca, plasma Ca increases reflected mobilization of Ca from bone, not intestinal Ca absorption."}, "[4]": {"system": "HL-60 promyelocytic leukemia cells", "assay": "Inhibition of proliferation of HL-60 cells", "type": "cell-based", "conditions": "Homo sapiens, HL-60, 192 h; for IC50: read-out: ID50 (concentration which reduced the cell number by 50%)", "protocol": "(§1) Inhibition of Cell Proliferation and Induction of Cell Differentiation\n(§2) Cultures of HL-60 promyelocytic leukemia cells were established in the absence (control) and presence of various concentrations of test compounds. After an 8-day incubation period, the cultures were evaluated for proliferation of tumor cells, cell viability, and cellular differentiation. Proliferation was assessed by directly enumerating the increased number of tumor cells resulting from cell division during incubation. Viability was assessed by dye exclusion technique to learn whether any of the compounds were lethal to the cultured HL-60 cells. Cellular differentiation was evaluated by determining the number of cells which had acquired the enzymes necessary to support a respiratory burst, a characteristic of mature macrophages and granulocytes.\n(§3) Tissue culture medium used in these experiments was RPMI-1640 supplemented to 10% v/v with heat-inactivated fetal bovine serum and to an additional 1.6 mM with L-glutamine.\n(§4) Test compounds were dissolved in sufficient ethanol to yield stock solutions of 1×10^-2 or 1×10^-3 molar. Reduced lighting was used when working with compounds and stock solutions were stored in the dark at -20° C. in an argon atmosphere. Compounds were diluted in tissue culture medium and added to flasks containing HL-60 cells to achieve the final concentration described in each test.\n(§5) The HL-60 tumor cell line was originally derived from a patient with promyelocytic leukemia and was obtained from the American Type Culture Collection. The cells were maintained in liquid culture by serial passage twice weekly in tissue culture medium. […] In any test, three replicate flasks were incubated without compound (control) or in the presence of varying concentrations of test compound. Ethanol, used as the vehicle, was kept constant in all dilutions in each test and had no effect on cell proliferation, viability or cell differentiation at the concentrations used (≤0.1%). After 8 days of incubation at 37° in a humidified atmosphere of 5% CO2 in air, cultures were evaluated for tumor cell proliferation, viability and differentiation.\nQuantitation of proliferation was done by enumerating the number of HL-60 cells in each individual flask (3 flasks per experimental point) using an Elzone electronic particle counter. Results are shown as the percent reduction of cell number calculated for each concentration tested according to the formula: [formula] The results are also expressed as the concentration which reduced the cell number by 50% (ID50)."}, "[5]": {"system": "HL-60 promyelocytic leukemia cells", "assay": "Induction of differentiation of HL-60 cells (NBT reduction)", "type": "cell-based, human", "conditions": "for EC50: Homo sapiens, HL-60, 192 h, read-out: ED50 (concentration which induced differentiation of 50% of the cells)", "protocol": "as §1, §2, §3, §4, §5\nQuantitation of differentiated cells was done by the biochemical method of nitroblue tetrazolum (NBT) reduction. One million HL-60 cells were pooled from replicate cultures, centrifuged at 220×g for 10 minutes, and resuspended in 1 ml of Ca^++ -Mg^++ -deficient phosphate buffered saline prepared by supplementing Ca^++ -Mg^++ -free phosphate buffered saline (PBS) to 20% v/v with heat-inactivated fetal bovine serum). Nitroblue tetrazolium was dissolved at 0.5 mg per ml in Ca^++ -Mg^++ -free PBS with gentle heating and frequent mixing. A stock solution of 1 mg tetradecanoyl phorbol acetate (TPA) per ml in ethanol, stored at -20°, was diluted 100-fold with Ca^++ -Mg^++ -free PBS to prepare a working solution. The test was done by adding 1 ml of NBT solution and 0.02 ml of the working TPA solution to the HL-60 cells. After mixing, the tubes were incubated in a 37° water bath for 25 minutes then transferred to ice. Undifferentiated and differentiated cells present in any sample were determined microscopically by surveying a minimum of 300 cells per sample. Cells without pigmented granules (clear cells) were judged to be undifferentiated while those containing greater than 3 blue-black formazan granules were scored as differentiated. Generally, differentiated cells were intensely pigmented clearly indicating the enzymatic conversion of NBT to formazan. Results are expressed as the percentage of differentiated cells present in any sample as calculated according to the formula: [formula] The results are also expressed as the concentration of compound which induced differentiation of 50% of the cells (ED50)."}, "[6]": {"molecular_target": "T1, 1,25-(OH)2 D3 receptors (chick intestine) (Gallus gallus, UniProt O42392)", "T1 construct": "receptor prepared from intestine of chick, rat and calf; from tissue; host or cells: chick proximal small-intestine mucosa, cytosol, 35% ammonium sulphate precipitate", "T1 sequence (O42392 1-451)": "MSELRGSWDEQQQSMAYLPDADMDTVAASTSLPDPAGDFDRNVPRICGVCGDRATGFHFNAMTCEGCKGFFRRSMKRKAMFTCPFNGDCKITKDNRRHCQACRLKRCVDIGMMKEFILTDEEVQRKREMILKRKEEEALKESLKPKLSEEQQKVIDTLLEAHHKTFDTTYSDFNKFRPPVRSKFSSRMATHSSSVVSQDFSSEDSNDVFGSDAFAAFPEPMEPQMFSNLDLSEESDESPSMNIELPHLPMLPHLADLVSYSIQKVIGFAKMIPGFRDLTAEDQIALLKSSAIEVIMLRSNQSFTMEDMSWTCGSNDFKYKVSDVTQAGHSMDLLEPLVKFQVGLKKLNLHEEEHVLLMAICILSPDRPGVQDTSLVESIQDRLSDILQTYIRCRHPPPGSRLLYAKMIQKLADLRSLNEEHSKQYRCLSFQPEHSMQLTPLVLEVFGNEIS", "assay": "Competitive Binding to 1,25-(OH)2 D3 Intestine Receptors, chick", "conditions": "a/b×100 from amounts displacing 50% of 1,25-(OH)2[3H]D3", "protocol": "(§6) The ability of vitamin D3 metabolites to compete for 1,25-(OH)[^3 H]D3 receptor binding sites was evaluated with receptor prepared from intestine of chick, rat and calf. […] Mucosa was collected and washed three times with 10 volumes of cold KTED buffer. The washed mucosa was homogenized in KTED buffer (20% w/v) using a Polytron Pt20 tissue disruptor. Cytosol was prepared by centrifugation of the homogenized mucosa at 300,000×g for 1 hour. […] The ammonium sulphate treated cytosol was centrifuged at 20,000×g for 10 minutes. The supernatant was discarded and the pellet lyophilized and stored at […] Prior to binding assay the pellet was resuspended in cold binding assay buffer containing 150 mM KCl, 50 mM NaPO4, 1.5 mM EDTA and 5 mM dithiothreitol."}, "[7]": {"molecular_target": "T2, 1,25-(OH)2 D3 receptors (calf intestine) (Bos taurus, UniProt Q28037)", "T2 construct": "receptor prepared from intestine of chick, rat and calf; from tissue; host or cells: calf proximal small-intestine mucosa, cytosol, 35% ammonium sulphate precipitate", "T2 sequence (Q28037 1-426)": "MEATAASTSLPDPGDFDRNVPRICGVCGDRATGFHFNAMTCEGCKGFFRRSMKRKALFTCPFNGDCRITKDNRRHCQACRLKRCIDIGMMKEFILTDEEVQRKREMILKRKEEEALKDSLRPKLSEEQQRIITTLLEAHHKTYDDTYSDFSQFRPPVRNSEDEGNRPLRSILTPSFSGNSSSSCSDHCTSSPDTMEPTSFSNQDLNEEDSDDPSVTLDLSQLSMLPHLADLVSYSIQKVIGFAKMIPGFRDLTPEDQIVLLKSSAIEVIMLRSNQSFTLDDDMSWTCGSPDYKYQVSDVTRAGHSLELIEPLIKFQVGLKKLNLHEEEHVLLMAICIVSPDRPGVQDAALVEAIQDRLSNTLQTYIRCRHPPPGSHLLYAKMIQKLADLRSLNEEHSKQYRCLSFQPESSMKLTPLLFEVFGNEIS", "assay": "Competitive Binding to 1,25-(OH)2 D3 Intestine Receptors, calf", "conditions": "a/b×100 from amounts displacing 50% of 1,25-(OH)2[3H]D3", "protocol": "as §6"}, "[8]": {"conditions": "read-out: % Reduction in cell number"}, "[9]": {"conditions": "8 days, from dose response curves"}},
  "note": "Like-named read-outs stand apart in the source and are kept apart here.",
  "data": [
    {"smiles": "C=C1/C(=C\\C=C2/CCC[C@]3(C)[C@@H]([C@H](C)CCCC(C)(C)O)CC[C@@H]23)C[C@@H](O)C[C@@H]1O", "note": "[1,25-(OH)2 D3, reference compound]", "values": [
      {"measurement": "% of 1,25-(OH)2 D3 Effect in Rat, intestinal calcium absorption", "setting": "[1]", "value": 100, "unit": "%"},
      {"measurement": "Bone Mass", "setting": "[2]; daily dose 15 ng", "value": "156 ± 16", "unit": "mm^3 /cm^3"},
      {"measurement": "Serum Ca^2+", "setting": "[2]; daily dose 15 ng", "value": "11.76 ± 0.16", "unit": "mg/dL"},
      {"measurement": "Serum PO4^2-", "setting": "[2]; daily dose 15 ng", "value": "7.61 ± 0.31", "unit": "mg/dL"},
      {"measurement": "Bone Mass", "setting": "[2]; daily dose 60 ng", "value": "296 ± 56", "unit": "mm^3 /cm^3"},
      {"measurement": "Serum Ca^2+", "setting": "[2]; daily dose 60 ng", "value": "11.92 ± 0.40", "unit": "mg/dL"},
      {"measurement": "Serum PO4^2-", "setting": "[2]; daily dose 60 ng", "value": "6.58 ± 0.30", "unit": "mg/dL"},
      {"measurement": "% of 1,25-(OH)2 D3 Effect in Rat, bone calcium mobilization", "setting": "[3]", "value": 100, "unit": "%"}
    ]},
    {"smiles": "C=C1CC[C@H](O)C/C1=C/C=C1\\CCC[C@]2(C)[C@@H]([C@H](C)CC#CC(C)(C)O)CC[C@@H]12", "note": "[Compound C, 25-hydroxy-23-yne-cholecalciferol]", "values": [
      {"measurement": "% of 1,25-(OH)2 D3 Effect in Rat, intestinal calcium absorption", "setting": "[1]", "value": 71, "unit": "%"},
      {"measurement": "inhibition at 0.1 µM", "setting": "[4]; [8]", "value": 0, "unit": "%"},
      {"measurement": "inhibition at 1 µM", "setting": "[4]; [8]", "value": 31, "unit": "%"},
      {"measurement": "inhibition at 3 µM", "setting": "[4]; [8]", "value": 79, "unit": "%"},
      {"measurement": "IC50", "setting": "[4]", "value": 1500, "unit": "nM"},
      {"measurement": "% Differentiated cells", "setting": "[5]; 10 × 10^-8 M, 8 days", "value": 5, "unit": "%"},
      {"measurement": "% Differentiated cells", "setting": "[5]; 100 × 10^-8 M, 8 days", "value": 27, "unit": "%"},
      {"measurement": "% Differentiated cells", "setting": "[5]; 300 × 10^-8 M, 8 days", "value": 95, "unit": "%"},
      {"measurement": "EC50", "setting": "[5]", "value": 1500, "unit": "nM"},
      {"measurement": "Competitive Binding to 1,25-(OH)2 D3 Receptors - % of 1,25-(OH)2 D3 Effect, chick intestine", "setting": "[6]", "value": 0, "unit": "%"},
      {"measurement": "Competitive Binding to 1,25-(OH)2 D3 Receptors - % of 1,25-(OH)2 D3 Effect, calf intestine", "setting": "[7]", "value": 0, "unit": "%"},
      {"measurement": "% of 1,25-(OH)2 D3 Effect in Rat, bone calcium mobilization", "setting": "[3]", "value": 0, "unit": "%"}
    ]},
    {"smiles": "C=C1CC[C@H](O)C/C1=C/C=C1\\CCC[C@]2(C)[C@@H]([C@H](C)CC#CC(O)(C(F)(F)F)C(F)(F)F)CC[C@@H]12", "note": "[Compound D, 25-hydroxy-23-yne-26,26,26,27,27,27-hexafluorocholecalciferol]", "values": [
      {"measurement": "% of 1,25-(OH)2 D3 Effect in Rat, intestinal calcium absorption", "setting": "[1]", "value": 0, "unit": "%"},
      {"measurement": "inhibition at 0.01 µM", "setting": "[4]; 1 × 10^-8 M, 8 days, read-out: % Reduction in cell number", "value": 0, "unit": "%"},
      {"measurement": "inhibition at 0.1 µM", "setting": "[4]; 10 × 10^-8 M, 8 days, read-out: % Reduction in cell number", "value": 14, "unit": "%"},
      {"measurement": "inhibition at 1 µM", "setting": "[4]; 100 × 10^-8 M, 8 days, read-out: % Reduction in cell number", "value": 77, "unit": "%"},
      {"measurement": "IC50", "setting": "[4]; [9]", "value": 250, "unit": "nM"},
      {"measurement": "% Differentiated cells", "setting": "[5]; 1 × 10^-8 M, 8 days", "value": 6, "unit": "%"},
      {"measurement": "% Differentiated cells", "setting": "[5]; 10 × 10^-8 M, 8 days", "value": 27, "unit": "%"},
      {"measurement": "% Differentiated cells", "setting": "[5]; 100 × 10^-8 M, 8 days", "value": 99, "unit": "%"},
      {"measurement": "EC50", "setting": "[5]; [9]", "value": 200, "unit": "nM"},
      {"measurement": "Competitive Binding to 1,25-(OH)2 D3 Receptors - % of 1,25-(OH)2 D3 Effect, chick intestine", "setting": "[6]", "value": 0, "unit": "%"},
      {"measurement": "Competitive Binding to 1,25-(OH)2 D3 Receptors - % of 1,25-(OH)2 D3 Effect, calf intestine", "setting": "[7]", "value": 0, "unit": "%"},
      {"measurement": "% of 1,25-(OH)2 D3 Effect in Rat, bone calcium mobilization", "setting": "[3]", "value": 11, "unit": "%"}
    ]}
  ]
}
